Test results: US5998420A, “Method for treating Mycobacterium tuberculosis” (priority 1996, dated 1999)
Values after ≈ are worked out from the molar mass of the structure shown. Where two headings read alike, the source gives them in different places.

Columns and labels:
[1] = system: Mycobacterium tuberculosis strain RC1; assay: MIC by agar dilution, M. tuberculosis strain RC1; assay type: cell-based; details: for MIC: Mycobacterium tuberculosis, RC1; for effect of LIV addition on toxicity, strain RC1: strain RC1, LIV added
[2] = system: E. coli ketol-acid reductoisomerase; details: cited from earlier work
[3] = system: yeast isopropylmalate isomerase; details: cited from earlier work; for inhibition of yeast isopropylmalate isomerase, 19 vs 21: fully ionized, nitronate forms
yeast = details: minimal media; cited from earlier work
[4] = cited from earlier work; for decomposition (retro-aldol): in the presence of divalent metals, unpublished observation
plants = details: leucine alone; cited from earlier work
[5] = system: Mycobacterium tuberculosis; details: cited from earlier work; for change in final colony forming units vs starting: Klemens et al., 1994
[6] = system: Mycobacterium tuberculosis; details: Heifets L. B. (1994); cited from earlier work
[7] = system: ketol-acid reductoisomerase; details: cited from earlier work
carrot cells = details: branched chain amino acids; cited from earlier work
E. coli = details: minimal media; cited from earlier work
K. pneumoniae = details: cited from earlier work
[8] = system: ketol-acid reductoisomerase from carrot (plant); details: cited from earlier work
[9] = system: ketol-acid reductoisomerase from Klebsiella pneumoniae; details: cited from earlier work
[10] = system: dihydroxy acid dehydratase from E. coli; details: 1 mM; cited from earlier work
[11] = system: E. coli ketol-acid reductoisomerase; details: presence of Mg2+ and NADPH; read-out: overall dissociation constant; cited from earlier work
[12] = system: acetolactate synthase from E. coli; details: 1 mM; cited from earlier work
[13] = system: Mycobacterium tuberculosis strain ATCC35801; assay: MIC by agar dilution, M. tuberculosis strain ATCC35801; assay type: cell-based; details: for MIC: Mycobacterium tuberculosis, ATCC35801; for effect of LIV addition on toxicity, strain ATCC35801: strain ATCC35801, LIV added
[14] = assay type: in vivo, CD-1 female mice; details: 500 mg/kg body weight subcutaneous each day for 30 days
Protocol: To determine if high doses of sulfometuron methyl would be toxic to mice, a 20 mg/ml solution of this compound was prepared in phosphate buffered saline and 0.5 ml of this was injected subcutaneously into 4 day-old CD-1 female mice each day for 30 days. This dose corresponded to 500 mg sulfometuron methyl/kg body weight of the mouse. After the 30-day course of treatment the mice were sacrificed and the internal organs were examined by a veterinarian trained in laboratory animal care. The organs were compared to a control group that received injections of phosphate buffered saline.

[15] = system: Mycobacterium tuberculosis strain ATCC35801; assay: Tuberculosis mouse model study, colony forming units in lungs and spleens; assay type: in vivo, mice
[16] = leucine, isoleucine, and valine added (+LIV), read-out: MIC +LIV, strain RC1
[17] = no branched chain amino acids (-LIV), read-out: MIC -LIV, strain RC1
[18] = leucine, isoleucine, and valine added (+LIV)
[19] = no branched chain amino acids (-LIV)

COc1nc(C)nc(NC(=O)NS(=O)(=O)c2ccccc2Cl)n1 [Chlorsulfuron]
MIC [1, 16]: > 35 mg/L | MIC [1, 17]: 4.4 mg/L (≈ 12.3 µM) | effect of LIV addition on toxicity, strain RC1 [1]: completely reversed the effects

O=C(O)C(=O)N(O)Cc1ccccc1 [Compound 13]
association rate for the inhibitor, benzyl (13) vs hydrogen (9) on nitrogen ([2]; relative to 9): increased the association rate for the inhibitor modestly

CCCCCCCCCCCCN(O)C(=O)C(=O)O [Compound 14]
potency relative to 13 ([2]; 12-carbon chain on nitrogen, Aulabaugh & Schloss, unpublished): comparable in potency to 13

CC(C)C(C(O)C(=O)O)[N+](=O)[O-] (centres unmarked) [Compound 19]
inhibition of yeast isopropylmalate isomerase [3]: potent inhibitors | inhibition of yeast isopropylmalate isomerase, 19 vs 21 [3]: comparable | growth of yeast (yeast): no affect | decomposition (retro-aldol) [4]: rapid rate

CC(C)C(O)(C[N+](=O)[O-])C(=O)O (centres unmarked) [Compound 20]
inhibition of yeast isopropylmalate isomerase [3]: potent inhibitors | growth of yeast (yeast): no affect | decomposition (retro-aldol) [4]: rapid rate

O=C(O)C1(O)CCCC1[N+](=O)[O-] (centres unmarked) [Compound 21]
inhibition of yeast isopropylmalate isomerase, 19 vs 21 [3]: comparable | inhibition of isopropylmalate isomerase, 21 vs 19 ([3]; physiological conditions (pH 7)): much more potent inhibitor than 19 | reversal of herbicidal activity (plants): reversed by leucine alone | stability of the molecule ([4]; cyclopentane ring of 21): insures stability of the molecule

CC[C@@H](CO)NCCN[C@@H](CC)CO [Ethambutol]
change in final colony forming units vs starting [5]: did not cause a decrease | MIC of first-line anti-tuberculosis drugs [6]: 2 mg/L

CP(C)(=O)C(O)C(=O)O (centres unmarked) [Hoe 704, 2-dimethylphosphinoyl-2-hydroxy acetic acid]
inhibition of E. coli ketol-acid reductoisomerase ([2]; Hoe 704): potent and selective inhibitor | inhibition of ketol-acid reductoisomerase [7]: potent inhibitors | reversal of effect on carrot cells in culture (carrot cells): can be reversed by branched chain amino acids alone | MIC [1, 17]: > 37 mg/L | growth inhibition of E. coli (E. coli): does not inhibit the growth | reversal of growth inhibitory effect on K. pneumoniae (K. pneumoniae; branched chain amino acids and pantoate): requires both branched chain amino acids and pantoate | growth of K. pneumoniae (K. pneumoniae): does inhibit the growth | inhibition of carrot ketol-acid reductoisomerase [8]: potent and selective inhibitor | inhibition of Klebsiella pneumoniae ketol-acid reductoisomerase [9]: potent and selective inhibitor

CC(C)N(O)C(=O)C(=O)O [IpOHA, N-Isopropyloxayl hydroxamate]
effect on dihydroxy acid dehydratase [10]: no effect | inhibition of ketol-acid reductoisomerase [7]: potent inhibitors | Kd [11]: 0.02 nM | effect on acetolactate synthase [12]: no effect | MIC [13, 18]: > 18 mg/L | MIC [13, 19]: 18 mg/L (≈ 122 µM) | effect of LIV addition on toxicity, strain ATCC35801 [13]: decreased the toxicity | MIC [1, 16]: 9.2 mg/L (≈ 62.5 µM) | MIC [1, 17]: 9.2 mg/L (≈ 62.5 µM) | effect of LIV addition on toxicity, strain RC1 [1]: did not reverse the toxic effects

NNC(=O)c1ccncc1 [Isoniazid]
Mycobacterium tuberculosis in spleens and lungs of mice ([5]; 25 mg/kg (Lalande et al., 1993)): significantly reduced | change in final colony forming units vs starting [5]: caused a decrease | MIC of first-line anti-tuberculosis drugs [6]: 0.2 mg/L

NC(=O)c1cnccn1 [Pyrazinamide]
change in final colony forming units vs starting [5]: did not cause a decrease | MIC of first-line anti-tuberculosis drugs [6]: 16 mg/L

CO[C@H]1/C=C/O[C@@]2(C)Oc3c(C)c(O)c4c(O)c(c(/C=N/N5CCN(C)CC5)c(O)c4c3C2=O)NC(=O)/C(C)=C\C=C\[C@H](C)[C@H](O)[C@@H](C)[C@@H](O)[C@@H](C)[C@H](OC(C)=O)[C@@H]1C [Rifampicin]
change in final colony forming units vs starting [5]: caused a decrease | MIC of first-line anti-tuberculosis drugs [6]: 0.5 mg/L

COC(=O)c1ccccc1S(=O)(=O)NC(=O)Nc1nc(C)cc(C)n1 [SM, sulfometuron methyl]
behavior of the mice and condition of the internal organs vs PBS [14]: No significant differences | Mann-Whitney U test, 2-tailed P, lungs ([15]; 20 mg/kg and 100 mg SM/kg): 0.31 | Mann-Whitney U test, 2-tailed P, lungs ([15]; 20 mg/kg and 500 mg SM/kg): 0.002 | Mann-Whitney U test, 2-tailed P, lungs ([15]; 100 mg/kg and 500 mg SM/kg): 0.009 | mice with more than 200 colony forming units in the lungs ([15]; 500 mg sulfometuron methyl/kg, lungs, 31 days): none | mice with more than 10^3 colony forming units/spleen, 500 mg/kg ([15]; 500 mg sulfometuron methyl/kg, spleen): 13% | growth of Mycobacterium tuberculosis in the lungs ([15]; 500 mg/kg body weight): significantly reduced growth | Mann-Whitney U test, 2-tailed P, lungs ([15]; PBS and 20 mg SM/kg): 0.39 | Mann-Whitney U test, 2-tailed P, lungs ([15]; PBS and 100 mg SM/kg): 0.65 | Mann-Whitney U test, 2-tailed P, lungs ([15]; PBS and 500 mg SM/kg): 0.03 | growth of Mycobacterium tuberculosis in a mouse model system ([15]; mouse, in vivo): inhibites growth | Kruskal-Wallis test, P, spleen ([15]; overall difference between four groups, spleen, P < 0.05 considered significant): > 0.05 | mice with more than 10^3 colony forming units in the lungs ([15]; pooled groups PBS, 20 mg/kg and 100 mg/kg SM, lungs, 31 days): 65% | mice with over 10^3 colony forming units/spleen, pooled groups ([15]; pooled groups PBS, 20 mg/kg and 100 mg/kg SM, spleen): 52% | MIC [13, 18]: > 3.6 mg/L | MIC [13, 19]: 3.6 mg/L (≈ 9.88 µM) | effect of LIV addition on toxicity, strain ATCC35801 [13]: prevented the toxicity | MIC [1, 16]: 1.8 mg/L (≈ 4.94 µM) | MIC [1, 17]: 0.3 mg/L (≈ 0.823 µM) | MIC ([1]; read-out: minimum inhibitory concentration, medium supplemented with bovine serum albumin): 4.4 mg/L (≈ 12.1 µM) | MIC ([1]; read-out: minimum inhibitory concentration, medium supplemented with sodium oleate and bovine serum albumin): 2.2 mg/L (≈ 6.04 µM) | effect of LIV addition on toxicity, strain RC1 [1]: partially reduced the toxicity | effect of isoleucine and valine addition on inhibition ([1]; strain RC1, isoleucine and valine added): did not prevent inhibition

[H]/N=C(/N)N[C@H]1[C@H](O)[C@@H](O)[C@H](O[C@@H]2O[C@@H](C)[C@](O)(C=O)[C@H]2O[C@@H]2O[C@@H](CO)[C@H](O)[C@@H](O)[C@@H]2NC)[C@@H](N/C(N)=N\[H])[C@@H]1O [Streptomycin]
MIC of first-line anti-tuberculosis drugs [6]: 3 mg/L
